Where two headings read alike, the source gives them in different places.
Key:
Experiment in all cases: Broth dilution MIC
Assay type in all cases: cell-based
[1] = test system: P. aeruginosa GC 4532; conditions: Pseudomonas aeruginosa, read-out: Antimicrobial Activity (MIC)
Description: (§1) The in vitro antibacterial activity of Example 1 through Example 20 is determined against a spectrum of Gram-positive and Gram-negative bacteria by a standard broth dilution method. Serial dilution of the compounds are made in Mueller-Hinton broth and inoculated with a bacterial suspension. The lowest concentration of compound that inhibited the growth of a bacterial strain after 18 hours of incubation at 35° C. is reported as the minimal inhibitory concentration (MIC) for that strain.

[2] = test system: M. morganii GC 4531; conditions: Morganella morganii, read-out: Antimicrobial Activity (MIC)
Description: as §1

[3] = test system: S. marcescens GC 4077; conditions: Serratia marcescens, read-out: Antimicrobial Activity (MIC)
Description: as §1

[4] = test system: E. coli GC 4560; conditions: Escherichia coli, read-out: Antimicrobial Activity (MIC)
Description: as §1

[5] = test system: P. aeruginosa GC 2214; conditions: Pseudomonas aeruginosa, read-out: Antimicrobial Activity (MIC)
Description: as §1

[6] = test system: CNS GC 4547; conditions: read-out: Antimicrobial Activity (MIC)
Description: as §1

[7] = test system: P. rettgeri GC 4530; conditions: Providencia rettgeri, read-out: Antimicrobial Activity (MIC)
Description: as §1

[8] = test system: E. cloacae GC 3783; conditions: Enterobacter cloacae, read-out: Antimicrobial Activity (MIC)
Description: as §1

[9] = test system: S. aureus GC 4536; conditions: Staphylococcus aureus, read-out: Antimicrobial Activity (MIC)
Description: as §1

[10] = test system: K. pneumoniae GC 4534; conditions: Klebsiella pneumoniae, read-out: Antimicrobial Activity (MIC)
Description: as §1

[11] = test system: E. faecalis GC 4555; conditions: Enterococcus faecalis, read-out: Antimicrobial Activity (MIC)
Description: as §1

[12] = test system: CNS GC 4537; conditions: read-out: Antimicrobial Activity (MIC)
Description: as §1

[13] = test system: E. coli GC 2203; conditions: Escherichia coli, read-out: Antimicrobial Activity (MIC)
Description: as §1

[14] = test system: S. aureus GC 1131; conditions: Staphylococcus aureus, read-out: Antimicrobial Activity (MIC)
Description: as §1

[15] = test system: CNS GC 4538; conditions: read-out: Antimicrobial Activity (MIC)
Description: as §1

[16] = test system: E. faecalis GC 2242; conditions: Enterococcus faecalis, read-out: Antimicrobial Activity (MIC)
Description: as §1

[17] = test system: S. aureus GC 2216; conditions: Staphylococcus aureus, read-out: Antimicrobial Activity (MIC)
Description: as §1

[18] = test system: E. coli GC 4559; conditions: Escherichia coli, read-out: Antimicrobial Activity (MIC)
Description: as §1

[19] = test system: E. coli GC 3226; conditions: Escherichia coli, read-out: Antimicrobial Activity (MIC)
Description: as §1

[20] = test system: E. faecalis GC 842; conditions: Enterococcus faecalis, read-out: Antimicrobial Activity (MIC)
Description: as §1

[21] = GC4532, P. aeruginosa GC 4532, Mueller-Hinton broth, 18 hours at 35° C.
[22] = GC4531, M. morganii GC 4531, Mueller-Hinton broth, 18 hours at 35° C.
[23] = GC4077, S. marcescens GC 4077, Mueller-Hinton broth, 18 hours at 35° C.
[24] = GC2214, P. aeruginosa GC 2214, Mueller-Hinton broth, 18 hours at 35° C.
[25] = CNS GC 4547, Mueller-Hinton broth, 18 hours at 35° C.
[26] = GC4530, P. rettgeri GC 4530, Mueller-Hinton broth, 18 hours at 35° C.
[27] = GC3783, E. cloacae GC 3783, Mueller-Hinton broth, 18 hours at 35° C.
[28] = GC4536, S. aureus GC 4536, Mueller-Hinton broth, 18 hours at 35° C.
[29] = GC4534, K. pneumoniae GC 4534, Mueller-Hinton broth, 18 hours at 35° C.
[30] = GC4555, E. faecalis GC 4555, Mueller-Hinton broth, 18 hours at 35° C.
[31] = CNS GC 4537, Mueller-Hinton broth, 18 hours at 35° C.
[32] = GC2203, E. coli GC 2203, Mueller-Hinton broth, 18 hours at 35° C.
[33] = GC1131, S. aureus GC 1131, Mueller-Hinton broth, 18 hours at 35° C.
[34] = CNS GC 4538, Mueller-Hinton broth, 18 hours at 35° C.
[35] = GC2242, E. faecalis GC 2242, Mueller-Hinton broth, 18 hours at 35° C.
[36] = GC2216, S. aureus GC 2216, Mueller-Hinton broth, 18 hours at 35° C.
[37] = GC4559, E. coli GC 4559, Mueller-Hinton broth, 18 hours at 35° C.
[38] = GC3226, E. coli GC 3226, Mueller-Hinton broth, 18 hours at 35° C.
[39] = GC842, E. faecalis GC 842, Mueller-Hinton broth, 18 hours at 35° C.

Measured: MIC

CO[C@H]1C(O[C@H](C(C(=O)O)N(CCCCCCCCCCCCN2CCOCC2)CCCNC(=O)C(NC(=O)C(NC(=O)NC(C(=O)O)C(C)C)C2CCNC(=N)N2)C(O)C(C)C)[C@H]2O[C@@H](n3ccc(=O)[nH]c3=O)[C@H](O)[C@@H]2O)O[C@H](CN)[C@@H]1O (stereo partly drawn) [Example 8, 16-((R)-{[(3R,4S,5R)-5-(Aminomethyl)-4-hydroxy-3-methoxytetrahydro-2-furanyl]oxy}{(2S,3S,4R,5R)-5-[2,4-dioxo-3,4-dihydro-1 (2H)-pyrimidinyl]-3,4-dihydroxytetrahydro-2-furanyl}methyl)-9-(1-hydroxy-2-methylpropyl)-6-(2-iminohexahydro-4-pyrimidinyl)-2-isopropyl-15-[12-(4-morpholinyl)dodecyl]-4,7,10-trioxo-3,5,8,11,15-pentaazaheptadecane-1,17-dioic Acid]
> 32 µg/mL: [1]; GC4532, 18 h | [2]; GC4531, 18 h | [3]; GC4077, 18 h | [4]; GC4560, 18 h | [5]; GC2214, 18 h | [6]; 18 h | [7]; GC4530, 18 h | [8]; GC3783, 18 h | [9]; GC4536, 18 h | [10]; GC4534, 18 h | [11]; GC4555, 18 h | [12]; 18 h | [13]; GC2203, 18 h | [14]; GC1131, 18 h | [15]; 18 h | [16]; GC2242, 18 h | [17]; GC2216, 18 h | [18]; GC4559, 18 h | [19]; GC3226, 18 h | [20]; GC842, 18 h

CO[C@H]1C(O[C@H](C(NCCCNC(=O)C(NC(=O)C(NC(=O)NC(C(=O)O)C(C)C)C2CCNC(=N)N2)C(O)C(C)C)C(=O)O)[C@H]2O[C@@H](n3ccc(=O)[nH]c3=O)[C@H](O)[C@@H]2O)O[C@H](CNCc2ccccc2)[C@@H]1O (stereo partly drawn) [Example 20A, 16-((R)-({(3R,4S,5R)-5-[(Benzylamino)methyl]-4-hydroxy-3-methoxytetrahydro-2-furanyl}oxy){(2S,3S,4R,5R)-5-[2,4-dioxo-3,4-dihydro-1 (2H)-pyrimidinyl]-3,4-dihydroxytetrahydro-2-furanyl}methyl)-9-(1-hydroxy-2-methylpropyl)-6-(2-iminohexahydro-4-pyrimidinyl)-2-isopropyl-4,7,10-trioxo-3,5,8,11,15-pentaazaheptadecane-1,17-dioic acid]
> 32 µg/mL: [1]; [21] | [2]; [22] | [3]; [23] | [4]; GC4560, 18 h | [5]; [24] | [6]; [25] | [7]; [26] | [8]; [27] | [9]; [28] | [10]; [29] | [11]; [30] | [12]; [31] | [13]; [32] | [14]; [33] | [15]; [34] | [16]; [35] | [17]; [36] | [18]; [37] | [19]; [38] | [20]; [39]

CCCCCCCCNC(=O)NC[C@H]1OC(O[C@H](C2C(=O)N(CCCCCCCC)C(=O)N2CCCNC(=O)C(NC(=O)C(NC(=O)NC(C(=O)O)C(C)C)C2CCNC(=N)N2)C(O)C(C)C)[C@H]2O[C@@H](n3ccc(=O)[nH]c3=O)[C@H](O)[C@@H]2O)[C@H](OC)[C@H]1O (stereo partly drawn) [Example 11, 14-[5-((R)-{(2S,3S,4R,5R)-5-[2,4-Dioxo-3,4-dihydro-1 (2H)-pyrimidinyl]-3,4-dihydroxytetrahydro-2-furanyl}{[(3R,4S,5R)-4-hydroxy-3-methoxy-5-({[(octylamino)carbonyl]amino}methyl)tetrahydro-2-furanyl]oxy}methyl)-3-octyl-2,4-dioxo-1-imidazolidinyl]-9-(1-hydroxy-2-methylpropyl)-6-(2-iminohexahydro-4-pyrimidinyl)-2-isopropyl-4,7,10-trioxo-3,5,8,11-tetraazatetradecan-1-oic Acid]
> 32 µg/mL: [1]; [21] | [2]; [22] | [3]; [23] | [4]; GC4560, E. coli GC 4560, Mueller-Hinton broth, 18 hours at 35° C. | [5]; [24] | [6]; [25] | [7]; [26] | [8]; [27] | [9]; [28] | [10]; [29] | [11]; [30] | [12]; [31] | [13]; [32] | [14]; [33] | [15]; [34] | [16]; [35] | [17]; [36] | [18]; [37] | [19]; [38] | [20]; [39]

CO[C@H]1C(O[C@H](C(C(=O)O)N(CCCNC(=O)C(NC(=O)C(NC(=O)NC(C(=O)O)C(C)C)C2CCNC(=N)N2)C(O)C(C)C)Cc2ccc(-c3ccccc3)cc2)[C@H]2O[C@@H](n3ccc(=O)[nH]c3=O)[C@H](O)[C@@H]2O)O[C@H](CNCc2ccc(-c3ccccc3)cc2)[C@@H]1O (stereo partly drawn) [Example 19B, 15-([1,1′-Biphenyl]-4-ylmethyl)-16-((R)-[((3R,4S,5R)-5-{[([1,1′-biphenyl]-4-ylmethyl)amino]methyl}-4-hydroxy-3-methoxytetrahydro-2-furanyl)oxy]{(2S,3S,4R,5R)-5-[2,4-dioxo-3,4-dihydro-1 (2H)-pyrimidinyl]-3,4-dihydroxytetrahydro-2-furanyl}methyl)-9-(1-hydroxy-2-methylpropyl)-6-(2-iminohexahydro-4-pyrimidinyl)-2-isopropyl-4,7,10-trioxo-3,5,8,11,15-pentaazaheptadecane-1,17-dioic Acid]
> 32 µg/mL: [1]; [21] | [2]; [22] | [3]; [23] | [4]; GC4560, 18 h | [5]; [24] | [6]; [25] | [7]; [26] | [8]; [27] | [9]; [28] | [10]; [29] | [11]; [30] | [12]; [31] | [13]; [32] | [14]; [33] | [15]; [34] | [16]; [35] | [17]; [36] | [18]; [37] | [19]; [38] | [20]; [39]

— patent publication US6727232B2, “Nucleoside peptide antibiotics of AA-896” (Wyeth Holdings Corporation, priority 2001, dated 2004)
